Results taken from ChEMBL document CHEMBL4507268 (2021).

What was measured:
Settings in all cases: Compound concentration 1000.0 nM
[1] = biological target: Fibroblast growth factor receptor 2 (Homo sapiens) (UniProt P21802)
[2] = biological target: T1, Tyrosine-protein kinase ZAP-70 (Homo sapiens) (UniProt P43403)
T1 sequence (whole entry): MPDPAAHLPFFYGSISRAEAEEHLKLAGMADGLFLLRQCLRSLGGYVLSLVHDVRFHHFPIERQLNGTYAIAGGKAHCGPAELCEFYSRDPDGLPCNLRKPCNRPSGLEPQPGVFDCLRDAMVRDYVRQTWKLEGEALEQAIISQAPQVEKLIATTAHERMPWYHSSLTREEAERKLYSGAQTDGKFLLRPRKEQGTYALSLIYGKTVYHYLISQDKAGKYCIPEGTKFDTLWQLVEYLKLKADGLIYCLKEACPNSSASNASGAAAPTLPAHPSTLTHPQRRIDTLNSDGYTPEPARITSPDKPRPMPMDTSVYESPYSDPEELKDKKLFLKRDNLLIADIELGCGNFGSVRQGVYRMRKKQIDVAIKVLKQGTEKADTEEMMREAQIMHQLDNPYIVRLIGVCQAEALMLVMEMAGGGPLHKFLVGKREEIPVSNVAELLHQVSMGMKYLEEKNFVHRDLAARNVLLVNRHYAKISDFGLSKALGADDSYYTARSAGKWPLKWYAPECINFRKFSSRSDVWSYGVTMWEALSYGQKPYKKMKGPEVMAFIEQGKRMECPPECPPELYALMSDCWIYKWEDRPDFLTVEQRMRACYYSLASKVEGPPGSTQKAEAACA

[3] = biological target: Serine/threonine-protein kinase TNNI3K (Homo sapiens) (UniProt Q59H18)
Chain of Serine/threonine-protein kinase TNNI3K (Homo sapiens) (Q59H18 whole entry): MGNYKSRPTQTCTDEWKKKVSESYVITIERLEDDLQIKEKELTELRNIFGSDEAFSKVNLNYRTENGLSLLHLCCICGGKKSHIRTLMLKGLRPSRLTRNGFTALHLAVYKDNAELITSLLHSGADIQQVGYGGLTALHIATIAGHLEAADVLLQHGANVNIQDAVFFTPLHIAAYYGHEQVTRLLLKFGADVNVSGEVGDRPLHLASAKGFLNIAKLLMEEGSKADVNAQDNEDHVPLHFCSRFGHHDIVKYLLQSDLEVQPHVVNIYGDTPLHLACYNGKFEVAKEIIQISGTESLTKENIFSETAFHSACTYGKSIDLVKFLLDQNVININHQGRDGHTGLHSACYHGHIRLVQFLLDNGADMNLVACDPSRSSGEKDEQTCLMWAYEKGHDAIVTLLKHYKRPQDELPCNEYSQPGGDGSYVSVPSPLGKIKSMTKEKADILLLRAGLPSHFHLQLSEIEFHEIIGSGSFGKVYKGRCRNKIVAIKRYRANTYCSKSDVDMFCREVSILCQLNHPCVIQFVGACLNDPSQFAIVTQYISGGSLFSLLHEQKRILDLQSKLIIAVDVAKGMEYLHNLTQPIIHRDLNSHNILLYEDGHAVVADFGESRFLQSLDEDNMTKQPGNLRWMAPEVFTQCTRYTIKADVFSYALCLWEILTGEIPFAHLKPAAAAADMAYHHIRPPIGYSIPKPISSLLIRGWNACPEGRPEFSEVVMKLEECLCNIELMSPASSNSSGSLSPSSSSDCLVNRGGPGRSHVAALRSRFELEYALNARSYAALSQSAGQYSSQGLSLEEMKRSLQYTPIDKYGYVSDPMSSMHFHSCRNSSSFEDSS

[4] = biological target: Proto-oncogene tyrosine-protein kinase Src (Homo sapiens) (UniProt P12931)
Chain of Proto-oncogene tyrosine-protein kinase Src (Homo sapiens) (P12931 2-536 limits assumed): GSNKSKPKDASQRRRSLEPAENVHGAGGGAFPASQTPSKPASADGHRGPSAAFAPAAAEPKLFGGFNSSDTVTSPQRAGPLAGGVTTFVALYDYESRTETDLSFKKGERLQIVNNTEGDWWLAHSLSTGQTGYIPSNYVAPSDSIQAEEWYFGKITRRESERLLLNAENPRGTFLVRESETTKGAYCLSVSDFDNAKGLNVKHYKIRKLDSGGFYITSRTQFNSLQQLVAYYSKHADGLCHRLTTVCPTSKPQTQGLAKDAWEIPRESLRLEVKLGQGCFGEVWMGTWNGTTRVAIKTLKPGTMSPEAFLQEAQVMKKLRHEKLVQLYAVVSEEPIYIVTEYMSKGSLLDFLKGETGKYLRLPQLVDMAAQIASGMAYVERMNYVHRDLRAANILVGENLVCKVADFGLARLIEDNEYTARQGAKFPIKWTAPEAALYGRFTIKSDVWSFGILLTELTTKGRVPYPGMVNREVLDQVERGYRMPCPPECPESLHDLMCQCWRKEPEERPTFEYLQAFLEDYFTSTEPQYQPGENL

[5] = biological target: T2, Dual specificity mitogen-activated protein kinase kinase 3 (Homo sapiens) (UniProt P46734)
T2 sequence (whole entry): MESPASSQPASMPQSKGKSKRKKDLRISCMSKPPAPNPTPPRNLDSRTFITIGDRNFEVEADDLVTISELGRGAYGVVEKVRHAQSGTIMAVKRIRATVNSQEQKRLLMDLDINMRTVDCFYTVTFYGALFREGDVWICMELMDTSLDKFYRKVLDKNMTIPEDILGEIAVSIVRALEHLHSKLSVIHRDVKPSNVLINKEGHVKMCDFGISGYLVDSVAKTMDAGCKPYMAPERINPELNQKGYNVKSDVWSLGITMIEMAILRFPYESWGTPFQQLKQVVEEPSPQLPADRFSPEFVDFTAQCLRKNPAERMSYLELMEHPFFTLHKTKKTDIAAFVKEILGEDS

[6] = biological target: STE20-like serine/threonine-protein kinase (Homo sapiens) (UniProt Q9H2G2)
Chain of STE20-like serine/threonine-protein kinase (Homo sapiens) (Q9H2G2 whole entry, looked up): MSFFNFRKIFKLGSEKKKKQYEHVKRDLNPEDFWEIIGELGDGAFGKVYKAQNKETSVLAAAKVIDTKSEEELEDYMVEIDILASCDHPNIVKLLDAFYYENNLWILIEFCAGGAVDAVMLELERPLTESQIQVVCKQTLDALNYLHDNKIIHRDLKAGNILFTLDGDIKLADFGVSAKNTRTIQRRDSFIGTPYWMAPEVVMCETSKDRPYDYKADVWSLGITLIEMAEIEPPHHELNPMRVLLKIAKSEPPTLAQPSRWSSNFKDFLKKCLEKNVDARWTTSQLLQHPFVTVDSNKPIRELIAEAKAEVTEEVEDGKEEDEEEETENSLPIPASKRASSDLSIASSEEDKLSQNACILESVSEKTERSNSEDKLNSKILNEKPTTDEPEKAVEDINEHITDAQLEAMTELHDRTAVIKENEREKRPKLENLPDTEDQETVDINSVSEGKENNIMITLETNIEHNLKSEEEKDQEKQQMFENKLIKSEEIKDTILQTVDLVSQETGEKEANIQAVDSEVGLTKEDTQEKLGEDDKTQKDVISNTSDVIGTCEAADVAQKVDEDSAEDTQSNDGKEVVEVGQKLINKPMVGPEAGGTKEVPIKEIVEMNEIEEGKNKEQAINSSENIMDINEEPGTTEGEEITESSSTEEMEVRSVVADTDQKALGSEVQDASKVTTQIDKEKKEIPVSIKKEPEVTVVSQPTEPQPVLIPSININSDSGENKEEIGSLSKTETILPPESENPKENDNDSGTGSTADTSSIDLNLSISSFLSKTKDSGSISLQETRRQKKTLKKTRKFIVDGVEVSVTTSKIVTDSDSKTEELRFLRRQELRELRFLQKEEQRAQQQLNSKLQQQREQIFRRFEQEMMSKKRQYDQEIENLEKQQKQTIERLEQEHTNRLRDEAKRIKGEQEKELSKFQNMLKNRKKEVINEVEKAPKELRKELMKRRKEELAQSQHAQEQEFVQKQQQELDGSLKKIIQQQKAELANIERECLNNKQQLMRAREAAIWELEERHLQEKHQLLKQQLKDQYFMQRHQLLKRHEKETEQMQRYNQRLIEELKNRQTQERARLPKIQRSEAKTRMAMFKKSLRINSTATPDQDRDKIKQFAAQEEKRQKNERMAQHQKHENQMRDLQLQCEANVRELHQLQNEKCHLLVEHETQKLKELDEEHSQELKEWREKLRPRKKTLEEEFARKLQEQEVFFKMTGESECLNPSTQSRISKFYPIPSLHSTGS

[7] = tested on: Epidermal growth factor receptor (Homo sapiens), P00533 [L861Q]
[8] = biological target: T3, Tyrosine-protein kinase JAK3 (Homo sapiens) (UniProt P52333)
T3 sequence (whole entry): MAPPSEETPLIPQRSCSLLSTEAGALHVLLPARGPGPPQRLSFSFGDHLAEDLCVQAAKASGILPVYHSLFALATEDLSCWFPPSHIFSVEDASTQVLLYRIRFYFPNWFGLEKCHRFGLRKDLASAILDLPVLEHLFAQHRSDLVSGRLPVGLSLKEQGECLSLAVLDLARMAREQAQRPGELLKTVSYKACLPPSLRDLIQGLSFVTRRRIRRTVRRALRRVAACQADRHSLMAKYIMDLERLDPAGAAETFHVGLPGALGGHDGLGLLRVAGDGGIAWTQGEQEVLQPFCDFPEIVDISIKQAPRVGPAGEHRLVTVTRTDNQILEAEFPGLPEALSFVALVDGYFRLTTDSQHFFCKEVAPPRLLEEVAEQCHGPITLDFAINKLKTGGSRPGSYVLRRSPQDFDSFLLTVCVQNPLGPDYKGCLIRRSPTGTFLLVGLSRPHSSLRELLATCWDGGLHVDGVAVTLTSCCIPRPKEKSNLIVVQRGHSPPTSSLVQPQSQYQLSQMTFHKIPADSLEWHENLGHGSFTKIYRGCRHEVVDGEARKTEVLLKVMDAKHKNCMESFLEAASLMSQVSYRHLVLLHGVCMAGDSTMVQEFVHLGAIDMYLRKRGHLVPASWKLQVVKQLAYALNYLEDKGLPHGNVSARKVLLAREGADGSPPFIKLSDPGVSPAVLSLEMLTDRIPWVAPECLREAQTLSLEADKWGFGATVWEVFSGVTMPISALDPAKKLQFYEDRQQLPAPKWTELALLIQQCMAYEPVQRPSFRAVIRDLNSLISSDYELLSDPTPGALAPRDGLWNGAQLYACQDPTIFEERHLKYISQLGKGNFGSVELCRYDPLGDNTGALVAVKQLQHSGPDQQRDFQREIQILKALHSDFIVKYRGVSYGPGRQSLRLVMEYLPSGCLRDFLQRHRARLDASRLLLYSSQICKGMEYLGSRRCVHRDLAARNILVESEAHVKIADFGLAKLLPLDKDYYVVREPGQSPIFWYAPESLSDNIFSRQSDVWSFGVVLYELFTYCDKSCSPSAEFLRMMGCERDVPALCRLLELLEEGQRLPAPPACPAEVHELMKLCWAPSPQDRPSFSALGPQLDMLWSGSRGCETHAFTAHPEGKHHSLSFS

[9] = biological target: T4, Mitogen-activated protein kinase kinase kinase 7 (Homo sapiens) (UniProt O43318)
T4 sequence (whole entry): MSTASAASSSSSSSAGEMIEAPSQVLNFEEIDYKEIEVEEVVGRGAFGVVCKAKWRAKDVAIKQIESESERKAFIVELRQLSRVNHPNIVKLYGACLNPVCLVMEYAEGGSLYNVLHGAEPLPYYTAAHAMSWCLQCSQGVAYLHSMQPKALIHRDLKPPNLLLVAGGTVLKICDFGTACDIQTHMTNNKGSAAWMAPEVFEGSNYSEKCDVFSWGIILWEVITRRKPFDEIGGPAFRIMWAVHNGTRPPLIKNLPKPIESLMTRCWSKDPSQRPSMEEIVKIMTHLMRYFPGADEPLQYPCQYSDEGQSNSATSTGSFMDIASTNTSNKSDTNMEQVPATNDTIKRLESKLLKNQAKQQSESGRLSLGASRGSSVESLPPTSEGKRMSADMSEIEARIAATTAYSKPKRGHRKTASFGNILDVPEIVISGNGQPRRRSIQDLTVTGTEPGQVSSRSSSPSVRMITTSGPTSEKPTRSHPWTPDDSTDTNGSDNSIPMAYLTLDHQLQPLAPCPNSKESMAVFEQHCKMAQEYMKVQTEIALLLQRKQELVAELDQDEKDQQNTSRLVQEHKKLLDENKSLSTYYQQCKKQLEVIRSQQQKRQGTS

Measured: residual activity

Chain of Fibroblast growth factor receptor 2 (Homo sapiens) (P21802 22-821 limits assumed): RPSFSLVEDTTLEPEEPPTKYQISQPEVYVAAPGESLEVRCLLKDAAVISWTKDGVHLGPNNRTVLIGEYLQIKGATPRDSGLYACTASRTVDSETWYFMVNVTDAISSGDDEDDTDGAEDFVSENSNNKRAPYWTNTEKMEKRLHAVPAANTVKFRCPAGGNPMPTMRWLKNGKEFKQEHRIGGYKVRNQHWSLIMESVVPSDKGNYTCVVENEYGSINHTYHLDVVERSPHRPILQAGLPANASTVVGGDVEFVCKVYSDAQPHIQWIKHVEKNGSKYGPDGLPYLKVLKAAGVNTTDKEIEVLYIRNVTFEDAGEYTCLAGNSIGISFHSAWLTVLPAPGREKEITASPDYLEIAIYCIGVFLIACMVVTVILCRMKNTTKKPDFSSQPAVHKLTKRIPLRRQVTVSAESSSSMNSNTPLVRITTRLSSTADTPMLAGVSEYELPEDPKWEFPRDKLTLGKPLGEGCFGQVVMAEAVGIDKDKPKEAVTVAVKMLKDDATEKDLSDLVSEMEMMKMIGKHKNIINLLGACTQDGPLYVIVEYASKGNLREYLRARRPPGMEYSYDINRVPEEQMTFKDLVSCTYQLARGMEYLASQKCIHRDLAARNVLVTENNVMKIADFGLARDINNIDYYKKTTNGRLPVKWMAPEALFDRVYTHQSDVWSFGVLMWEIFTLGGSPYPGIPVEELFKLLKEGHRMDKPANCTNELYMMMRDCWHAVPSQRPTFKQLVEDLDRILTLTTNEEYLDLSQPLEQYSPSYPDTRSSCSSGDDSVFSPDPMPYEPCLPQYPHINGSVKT

Cc1nc(C2CCN(C(=O)c3ccc(OC(F)(F)F)cc3N)CC2)c2ncc(N3CCN(C)CC3)cc2n1 [BAY-693]
inactive: [1] 100% | [2] 100% | [3] 100% | [4] 99% | [5] 98% | [6] 97% | [7] 100% | [8] 100% | [9] 100%

CN1CCN(c2cnc3c(C4CCN(C(=O)c5ccc(OC(F)(F)F)cc5N)CC4)ncnc3c2)CC1 [BAY-885]
inactive: [1] 100% | [2] 100% | [3] 100% | [4] 100% | [5] 94% | [6] 96% | [7] 100% | [8] 100% | [9] 100%
